From publication PMC4102551, “Screening and Characterisation of Antimicrobial Properties of Semisynthetic Betulin Derivatives” (PLoS ONE, 2014)
Several values for one entry are separate records, joined by “and”; a condition that tells them apart may be missing. Identical values can stand only once. Like-named read-outs stand apart in the source and are kept apart here.

Columns and labels:
P. aeruginosa ATCC 27853 = assay: Broth microdilution assay, P. aeruginosa; type: cell-based, Pseudomonas aeruginosa
Method in brief: (§1)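 Broth microdilution per CLSI/EUCAST in Mueller Hinton II broth, 5×10^5 cfu/mL, 24 h at 37°C with agitation; growth by absorbance at 620 nm versus controls. Compounds first screened at 50 µM.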

E. coli ATCC 25922 = assay: Broth microdilution assay, E. coli; type: cell-based, Escherichia coli
Method in brief: as §1

E. aerogenes ATCC 13048 = assay: Broth microdilution assay, E. aerogenes; type: cell-based, Enterobacter aerogenes; conditions: for inhibition at 50 µM: Klebsiella aerogenes, ATCC13048, 24 h, read-out: Inhibitory effect (%) E. aerogenes ATCC 13048
Method in brief: as §1

C. albicans ATCC 90028 = assay: Broth microdilution assay, C. albicans; type: cell-based, Candida albicans
Method in brief: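 Candida albicans ATCC 90028 was grown on Sabouraud Dextrose Agar at 27°C for 16–18 h, then suspended in sterile 0.9% saline. Broth microdilution in clear 96-well plates mixed equal volumes of yeast suspension and diluted sample. Plates were incubated with agitation at 35°C for 48 h. Absorbance at 620 nm was read at 0, 24 and 48 h, and growth inhibition was expressed as a percentage relative to controls.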

S. aureus ATCC 25923 = assay: Broth microdilution assay, S. aureus; type: cell-based, Staphylococcus aureus; conditions: for inhibition at 50 µM: Staphylococcus aureus, ATCC25923, 24 h
Method in brief: as §1

Huh-7 cells = assay: in vitro; type: cell-based, human; conditions: for Cytotoxicity (%) Huh-7 cells: 50 µM
Method in brief: (§2)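 Cytotoxicity read-out: intracellular ATP (CellTiter-Glo luminescence) in Huh-7 hepatoma cells seeded at 20000 cells/well, cultured overnight, then exposed to compounds for 24 h at 37°C in 5% FBS medium. Polymyxin B sulphate (15000 IU/mL) served as positive control.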

in vitro = type: cell-based, human; conditions: human
Method in brief: as §2

E. faecalis ATCC 29212 = assay: Broth microdilution assay, E. faecalis; type: cell-based, Enterococcus faecalis; conditions: for inhibition at 50 µM: Enterococcus faecalis, ATCC29212, 24 h
Method in brief: as §1

[1] = Pseudomonas aeruginosa, ATCC27853, 24 h; read-out: Inhibitory effect (%) P. aeruginosa ATCC 27853
[2] = Escherichia coli, ATCC25922, 24 h; read-out: Inhibitory effect (%) E. coli ATCC 25922
[3] = 50 µM, 24 h, inhibition of growth, mean ± SD
[4] = Candida albicans, ATCC90028, 48 h; read-out: Inhibitory effect (%) C. albicans ATCC 90028
[5] = 50 µM, 24 h, inhibition of growth, mean ± SD, read-out: Inhibitory effect (%) S. aureus ATCC 25923
[6] = 50 µM, 24 h, inhibition of growth, mean ± SD, read-out: Inhibitory effect (%) E. faecalis ATCC 29212
[7] = 50 µM, 24 h exposure, ATP content, 5% FBS, read-out: Cytotoxicity (%) Huh-7 cells
[8] = 50 µM, 48 h at 35°C, inhibition of growth, mean ± SD
[9] = 24 h exposure, ATP content, 5% FBS

Compound	inhibition at 50 µM (P. aeruginosa ATCC 27853; [1])	inhibition at 50 µM (E. coli ATCC 25922; [2])	inhibition at 50 µM (E. aerogenes ATCC 13048; [3])	inhibition at 50 µM (C. albicans ATCC 90028; [4])	inhibition at 50 µM (S. aureus ATCC 25923; [5])	cytotoxicity at 24 h, 50 µM (in vitro; Cytotoxicity (%) Huh-7 cells)	inhibition at 50 µM (E. faecalis ATCC 29212; [6])	Inhibitory effect (%) E. faecalis ATCC 29212 (E. faecalis ATCC 29212; [3])	Inhibitory effect (%) P. aeruginosa ATCC 27853 (P. aeruginosa ATCC 27853; [3])	Inhibitory effect (%) E. coli ATCC 25922 (E. coli ATCC 25922; [3])	Inhibitory effect (%) E. aerogenes ATCC 13048 (E. aerogenes ATCC 13048; [3])	Inhibitory effect (%) C. albicans ATCC 90028 (C. albicans ATCC 90028; [8])	Inhibitory effect (%) S. aureus ATCC 25923 (S. aureus ATCC 25923; [3])	Cytotoxicity (%) Huh-7 cells (Huh-7 cells; [9])	further results
C=C(C)[C@@H]1CC[C@]2(C=O)CC[C@]3(C)C(CCC4[C@@]5(C)CC[C@H](O)C(C)(C)C5CC[C@]43C)C12 (stereo partly shown) [Compound 18, betulinic aldehyde]	3.9 ± 0.6%	2.7 ± 2.4%	13.5 ± 2.6%	6.9 ± 8.1%	-35.5%	61%	39.6 ± 8%								Cytotoxicity (%) Huh-7 cells (Huh-7 cells; human, 24 h): 61.3±9.5%; IC50 at 24 h (in vitro): 47 µM
CC(=O)OCC12CCC3(C(C)C)C1=C1C(CC4C5(C)CCC(OC(C)=O)C(C)(C)C5CCC4(C)C1(C)CC2)n1c(=O)n(-c2cccc([N+](=O)[O-])c2)c(=O)n13 (stereo not shown) [Compound 38]	7.6 ± 1.4%	8.8 ± 2.6%	19.3 ± 3%	-13.8%	6.7 ± 1.5%		> 70%	74% and 73.9±1.4%							cytotoxicity at 24 h, 50 µM (in vitro; [7]): 8.3 ± 3.9%
C=C(C)[C@@H]1CC[C@]2(C(=O)Oc3ccc(C=O)cc3OC)CC[C@]3(C)[C@H](CC[C@@H]4[C@@]5(C)CCC(=O)C(C)(C)C5CC[C@]43C)[C@@H]12 (stereo partly shown) [Compound 26, vanillinyl betulonate]						-10.1 ± 2.2%		58.7±0.1%							inhibition at 50 µM (P. aeruginosa ATCC 27853; Pseudomonas aeruginosa, ATCC27853, 24 h, read-out: Inhibitory effect (%) P. aeruginosa ATCC 27853): 6.6 ± 1%; inhibition at 50 µM (E. coli ATCC 25922; Escherichia coli, ATCC25922, 24 h, read-out: Inhibitory effect (%) E. coli ATCC 25922): 4.1 ± 0.4%; inhibition at 50 µM (E. aerogenes ATCC 13048): 7.5 ± 0.6%; inhibition at 50 µM (C. albicans ATCC 90028; Candida albicans, ATCC90028, 48 h, read-out: Inhibitory effect (%) C. albicans ATCC 90028): -65.9 ± 15%; inhibition at 50 µM (S. aureus ATCC 25923; read-out: Inhibitory effect (%) S. aureus ATCC 25923, 50 µM, 24 h, inhibition of growth, mean ± SD): 7.3 ± 5.8%; inhibition at 50 µM (E. faecalis ATCC 29212; read-out: Inhibitory effect (%) E. faecalis ATCC 29212, 50 µM, 24 h, inhibition of growth, mean ± SD): 59%
C=C(C)[C@@H]1CC[C@]2(COC(=O)COc3cc(C(C)C)ccc3C)CC[C@]3(C)[C@H](CC[C@@H]4[C@@]5(C)CC[C@H](O)C(C)(C)[C@@H]5CC[C@]43C)[C@@H]12 [Compound 4, betulinyl 28-carboxymethoxycarvacrolate]	3 ± 3%	-1.2%	9.9 ± 3.3%	31.4 ± 9.1%	-17.2%	-4.6%	> 70%	72% and 72.3±4.0%							
CC(=O)OCC12CCC3(C(C)C)C1=C1C(CC4C5(C)CCC(OC(C)=O)C(C)(C)C5CCC4(C)C1(C)CC2)n1c(=O)n(-c2ccc4c(c2)OCO4)c(=O)n13 (stereo not shown) [Compound 35]	5.5 ± 1%	3.4 ± 3.1%	14.2 ± 1.6%	4.4 ± 12.9%	5.9 ± 1.2%		> 70%	70.0±0.9%							cytotoxicity at 24 h, 50 µM (in vitro; [7]): -0.1%
C=C(C)[C@@H]1CC[C@]2(C(=O)OC)CC[C@]3(C)[C@H](CC[C@@H]4[C@@]5(C)CC[C@H](O)C(C)(C)[C@@H]5CC[C@]43C)[C@@H]12 [Compound 20, betulinic acid methyl ester]								51% and 51.1±0.6%	8.6±2.5%	13.5±8.9%	39% and 38.9±1.5%	34.3±5.6%	5.3±4.2%	33.7±7.0%	
CC(C)C12CCC3(COC(=O)c4ccccc4)CCC4(C)C(=C31)C(CC1C3(C)CCC(OC(=O)c5ccccc5)C(C)(C)C3CCC14C)n1c(=O)n(-c3ccccc3)c(=O)n12 (stereo not shown) [Compound 50]								38.8±5.8%	3.2±0.3%	-2.8±5.2%	9.6±4.2%	-35.2±31.4%	10.1±1.0%	-6.2±3.7%	
CC(C)C12CCC3(COC(=O)c4ccccc4)CCC4(C)C(=C31)C(CC1C3(C)CCC(OC(=O)c5ccccc5)C(C)(C)C3CCC14C)n1c(=O)n(C)c(=O)n12 (stereo not shown) [Compound 49]								64.6±0.8%	5.3±1.9%	0.0±6.0%	14.2±1.5%	-48.0±24.5%	15.1±1.0%	-10.6±4.1%	
C=C(C)C1CCC2(C=NO)CCC3(C)C(CCC4C5(C)CCC(O)C(C)(C)C5CCC43C)C12 (stereo not shown) [Compound 31, betulin-28-oxime]	5.4 ± 2.2%	1.9 ± 4%	14.6 ± 0.9%	-73.5%	6.4 ± 3.4%	61%	41 ± 3.4%								inhibition at 100 µM (Huh-7 cells; Homo sapiens, Huh-7, 100 µM, 24 h, read-out: Inhibition in ATP assay, Huh-7 cells): 60%; Cytotoxicity (%) Huh-7 cells (Huh-7 cells; human, 24 h): 61.5±2.0%; IC50 at 24 h (in vitro): 25 µM
CC(C)[C@@H]1CC[C@]2(C(=O)O)CC[C@]3(C)[C@H](CC[C@@H]4[C@@]5(C)CCC(=O)C(C)(C)[C@@H]5CC[C@]43C)[C@@H]12 [Compound 24, dihydrobetulonic acid]	4.9 ± 0.5%	6.2 ± 4.5%	16.8 ± 5.4%	54.9 ± 8.3%	15.1 ± 3.7%	13 ± 10.3%	57%	56.6±2.0%							
COc1cccc(-n2c(=O)n3n(c2=O)C2(C(C)C)CCC4(COC(C)=O)CCC5(C)C(=C42)C3CC2C3(C)CCC(OC(C)=O)C(C)(C)C3CCC25C)c1 (stereo not shown) [Compound 34]								68.4±3.0%	0.6±2.5%	1.7±4.2%	13.8±4.3%	-1.1±3.5%	3.1±2.0%	8.5±2.0%	
CCC(=O)OCC12CCC3(C(C)C)C1=C1C(CC4C5(C)CCC(OC(=O)CC)C(C)(C)C5CCC4(C)C1(C)CC2)n1c(=O)n(C)c(=O)n13 (stereo not shown) [Compound 45]								41.6±2.8%	3.7±1.2%	-4.3±7.0%	10.8±6.9%	-30.7±19.4%	0.7±3.8%	11.1±5.1%	
